Laboratory results: US4323550A, “Halogenohydrates of N,N-disubstituted derivatives of piperazine having anticariogenic properties” (priority 1976, dated 1982)

Experiments:
Solubility = format: physicochemical
[1] = Acute oral toxicity in mice; format: in vivo; conditions: in vivo, mouse, Lichfield and Wilcoxon
Procedure: (§1) By way of example there are described below the comparative tests made on difluorohydrate of N,N'-di(hydroxyethyl) piperazine and on fluorohydrate of hexadecylamine or "ELMEX 242".
(§2) The acute toxidity was studies in rats and in mice.
(§3) The animals came from a homogeneous breed. The mice weighed between 19 and 21 g and the rats weighed from 120 to 140 g. The mice were grouped in lots of 10 and the rats in lots of 8.
(§4) The administrations took place orally at a volume of 0.5 ml per 20 g of mouse and 1 ml per 100 g of rat. The LD50 was determined by the method of Lichfield and Wilcoxon.
(§5) As regards the difluorohydrate of N,N'-di(hydroxyethyl) piperazine, the administered solution was prepared by diluting the mother solution to 65.4%, the dilutions being made after having weighed this solution. The administered dose is expressed by weight, taking account of the indicated strength of this solution.
(§6) For the solid "ELMEX 242" an aqueous suspension was prepared with the aid of solubilizing agents (e.g. Tween-polyoxyethylene sorbitan monolaurate). A very thick suspension is then obtained which tends to foam heavily, is difficult to get into the esophageal sound, and the determination of its volume is rendered difficult by the foam.
(§7) The results obtained with the "ELMEX" are therefore rather approximate.

mice = assay: Acute oral toxicity in mice; format: in vivo; conditions: mouse
Procedure: as §1, §2, §3, §4, §5, §6, §7

rats = assay: in vivo; format: in vivo; conditions: rat, oral; for Deaths: D + 10, 8 per lot
Procedure: as §1, §2, §3, §4, §5, §6, §7

[2] = Penetration of fluorine 18 into dental enamel after topical application (Muhlemann biopsy); parameters: species or system children
Text: The anticariogenic activity of the difluorohydrate of N,N'-di(hydroxy-ethyl) piperazine has been evidenced by comparison with sodium fluoride known for its cariopreventive topical properties. A comparative study has been made of the penetration into the dental enamel of the fluorine contained in the molecule according to the invention and of the fluorine contained in sodium fluoride.
For this comparison the difluorohydrate of N,N'-di(hydroxy-ethyl) piperazine was marked at the fluorine 18, by isotopic exchange by dissolving some crystals of the product according to the invention in a solution of pure fluorine 18 without entrainer. The same was done for the sodium fluoride.
The study of the penetration of the fluorine into the enamel was made on several teeth to compare the behavior of the product of the invention and of sodium fluoride in supplying fluorine and in the penetration of the latter into the deepest layers of the dental tissue.
The tests were performed on 30 premolar teeth taken from normal children 9 to 11 years old. Eighteen teeth were treated by topical application of the radioactive solutions of the difluoro-hydrate of N,N'-di(hydroxy-ethyl) piperazine or of NaF adjusted to pH=3.5; the other 12 were treated with the same solutions adjusted to a pH of 7.4.
The radioactive solutions are obtained by dissolving 69 mg of the difluorohydrate and 81.3 mg of NaF, respectively, in 1 and 3 ml of fluorine 18 solution without entrainer. Thus solutions titering 1.23% fluorine are obtained.
As the difluorohydrate solution is already at pH=3.5, it is sufficient to acidify the NaF solution by addition of about 0.2 ml hydrochloric acid 6 M, to 3 ml of the radioactive solution.
In this case, the difluorohydrate's nature of organic salt can be preserved and its solution neutralized at 1.23% of fluorine in 1 ml by addition of about 110 mg of its N,N'-di(hydroxyethyl) piperazine base.
For the experimentation one determines two enamel plagues on each tooth. For this, one applies on the crowns, separated from each other by 2 or 3 mm, two round disks of a diameter of 3 mm cut out from adhesive tape. The crown is then covered with a layer of impermeable varnish. When the varnish is dry, the patches of adhesive tape are removed, thus bearing the two zones of enamel to be treated.
The spot application of the fluorinated solution is done by means of a sponge imbibed with 0.5 ml of the solution. This sponge is inserted in a polyethylene tube to limit the surface of contact between tooth and sponge to the circumference of the enamel zone treated.
The sampling of the enamel is done by Muhlemann's biopsy technique: A patch of blotting paper impregnated with 4 microliters of perchloric acid 2 M is applied on the trated enamel for 30 seconds. The enamel is dried with a second patch of blotting paper. It is on these patches which contain the dissolved enamel that we measure the radioactivity.
There are given in Table I all the results relating to the acid treatment, in Table II all the results relating to the treatment at neutral pH. The fluorine values are those obtained by measuring the radioactivity of the samples.
The columns […] and N2 represent the mass of fluorine measured on the second biopsy.
We have marked R1 and R1 and R2 the ratios G1 /G2 and N1 /N2, and R3 the ratio. [formula] R1 and R2 permitting to compare the quantities of fluorine at the same depth. R3 permits comparing the accumulation of fluorine in the tooth.

SMILES: OCCN1CCN(CCO)CC1 [DI-IODOHYDRATE OF N,N'-DI-(BETA-HYDROXY-ETHYL) PIPERAZINE]
- solubility in water, in alcohols, glycols (Solubility): soluble

SMILES: CCCCCCCCCCCCCCCCN [ELMEX 242, fluorohydrate of hexadecylamine]
- LD50 at 240 h [1]: 1250 mg/kg
- course: death and recovery (mice): Death occurs in a few hours; for others recovery is also fairly rapid.
- symptoms (mice): The animals have diarrhea. The mice are totally immobile and tremble.
- Deaths (mice; 600 mg/kg, D + 1, 10 per lot): 0
- Deaths (mice; 600 mg/kg, D + 2, 10 per lot): 0
- Deaths (mice; 600 mg/kg, D + 5, 10 per lot): 0
- Deaths (mice; 600 mg/kg, D + 10, 10 per lot): 0
- Deaths (mice; 800 mg/kg, D + 1, 10 per lot): 0
- Deaths (mice; 800 mg/kg, D + 2, 10 per lot): 0
- Deaths (mice; 800 mg/kg, D + 5, 10 per lot): 0
- Deaths (mice; 800 mg/kg, D + 10, 10 per lot): 0
- Deaths (mice; 1000 mg/kg, D + 1, 10 per lot): 1
- Deaths (mice; 1000 mg/kg, D + 2, 10 per lot): 2
- Deaths (mice; 1000 mg/kg, D + 5, 10 per lot): 2
- Deaths (mice; 1000 mg/kg, D + 10, 10 per lot): 2
- Deaths (mice; 1250 mg/kg, D + 1, 10 per lot): 1
- Deaths (mice; 1250 mg/kg, D + 2, 10 per lot): 2
- Deaths (mice; 1250 mg/kg, D + 5, 10 per lot): 3
- Deaths (mice; 1250 mg/kg, D + 10, 10 per lot): 3
- Deaths (mice; 1500 mg/kg, D + 1, 10 per lot): 4
- Deaths (mice; 1500 mg/kg, D + 2, 10 per lot): 7
- Deaths (mice; 1500 mg/kg, D + 5, 10 per lot): 9
- Deaths (mice; 1500 mg/kg, D + 10, 10 per lot): 9
- Deaths (mice; 1750 mg/kg, D + 1, 10 per lot): 3
- Deaths (mice; 1750 mg/kg, D + 2, 10 per lot): 4
- Deaths (mice; 1750 mg/kg, D + 5, 10 per lot): 9
- Deaths (mice; 1750 mg/kg, D + 10, 10 per lot): 9
- Deaths (mice; 2000 mg/kg, D + 1, 10 per lot): 9
- Deaths (mice; 2000 mg/kg, D + 2, 10 per lot): 10
- Deaths (mice; 2000 mg/kg, D + 5, 10 per lot): 10
- Deaths (mice; 2000 mg/kg, D + 10, 10 per lot): 10
- Deaths (mice; 2500 mg/kg, D + 1, 10 per lot): 10
- Deaths (mice; 2500 mg/kg, D + 2, 10 per lot): 10
- Deaths (mice; 2500 mg/kg, D + 5, 10 per lot): 10
- Deaths (mice; 2500 mg/kg, D + 10, 10 per lot): 10
- symptoms / behavior (rats): The behavior of the animals is normal.
- Deaths (rats; 125 mg/kg): 0
- Deaths (rats; 150 mg/kg): 0
- Deaths (rats; 500 mg/kg): 0

SMILES: [F-].[Na+] [NaF, sodium fluoride, reference compound]
- mean value of R2 ([2]; neutral medium, 12 teeth): 3.6
- average fluorine sampled in the two biopsies, acid pH compared with neutral pH ([2]; pH 3.5 versus pH 7.4): 3.6
